We go through one compound from ChEMBL document CHEMBL5528081 (J Med Chem, 2024).

Each structure is given as a SMILES string.

In the assay the test system is CD4+ T cell. The conditions noted are these: Human immunodeficiency virus, dose 0.05-10 nM.

On to `C/C=C/[C@H]1O[C@@](O)([C@@H](C)[C@H](O)[C@H](C)[C@H]2OC(=O)/C(OC)=C/C(C)=C/[C@@H](C)[C@@H](O)[C@@H](CC)[C@@H](O)[C@H](C)C/C(C)=C/C=C/[C@@H]2OC)C[C@@H](O[C@H]2C[C@@H](O)[C@H](OC(N)=O)[C@@H](C)O2)[C@@H]1C`, for which the inhibition result is “Dose-Dependent Effect”.
